# Measurements from ChEMBL document CHEMBL4190370, “Emerging New Targets for the Treatment of Resistant Fungal Infections” (J Med Chem, 2018).
# Tests used:
# Saccharomyces cerevisiae [1] = test: Inhibition of Saccharomyces cerevisiae AHAS
# Cryptococcus neoformans [2] = test: Antifungal activity against Cryptococcus neoformans after 24 hrs; type: functional
# Candida albicans [3] = test: Antifungal activity against Candida albicans after 24 hrs; type: functional
# Aspergillus fumigatus [4] = test: Antifungal activity against Aspergillus fumigatus after 24 hrs; type: functional
# [5] = Inhibition of Aspergillus fumigatus AGM1
# Aspergillus fumigatus [6] = test: Antifungal activity against Aspergillus fumigatus IFM 40808 after 48 hrs by broth-microdilution method; type: functional; details: IFM 40808, 48 h
# [7] = Inhibition of Aspergillus fumigatus KU80UpyrG- NMT using [3H]-MCoA and CAP5.5 as substrate after 20 mins by SPA assay
# Candida albicans [8] = test: Inhibition of Cch1 in Candida albicans isolate 16 assessed as potentiation of fluconazole-induced antifungal activity by measuring fractional inhibitory concentration index after 24 hrs by checkerboard assay
# Candida albicans [9] = test: Inhibition of Cch1 in Candida albicans isolate 10 assessed as potentiation of fluconazole-induced antifungal activity by measuring fractional inhibitory concentration index after 24 hrs by checkerboard assay
# Candida albicans [10] = test: Antifungal activity against Candida albicans; type: functional
# Candida albicans [11] = test: Antifungal activity against fluconazole-resistant Candida albicans clinical isolate 4617 planktonic cells after 48 hrs by broth microdilution assay; type: functional; details: isolate 4617, 48 h
# Candida albicans [12] = test: Antifungal activity against fluconazole-resistant Candida albicans SC5314 planktonic cells after 48 hrs by broth microdilution assay; type: functional; details: SC5314, 48 h
# Candida albicans [13] = test: Antifungal activity against fluconazole-resistant Candida albicans clinical isolate 6191 planktonic cells after 48 hrs by broth microdilution assay; type: functional; details: isolate 6191, 48 h
# Candida albicans [14] = test: Antifungal activity against fluconazole-resistant Candida albicans clinical isolate 1691 planktonic cells after 48 hrs by broth microdilution assay; type: functional; details: isolate 1691, 48 h
# Candida albicans [15] = test: Antifungal activity against fluconazole-resistant Candida albicans clinical isolate 6482 planktonic cells after 48 hrs by broth microdilution assay; type: functional; details: isolate 6482, 48 h
# Candida albicans [16] = test: Antibiofilm activity against Candida albicans SC5314 assessed as inhibition of mature biofilm formation at 8 to 32 ug/ml after 24 hrs by XTT reduction assay; type: functional
# Candida albicans [17] = test: Antibiofilm activity against Candida albicans SC5314 assessed as inhibition of biofilm formation at 2 to 4 ug/ml after 24 hrs by XTT reduction assay; type: functional
# Candida albicans [18] = test: Antifungal activity against fluconazole-resistant Candida albicans clinical isolate 412 planktonic cells after 48 hrs by broth microdilution assay; type: functional; details: isolate 412, 48 h
# Candida albicans [19] = test: Antifungal activity against fluconazole-resistant Candida albicans clinical isolate 5106 planktonic cells after 48 hrs by broth microdilution assay; type: functional; details: isolate 5106, 48 h
# Candida albicans [20] = test: Antifungal activity against fluconazole-resistant Candida albicans clinical isolate 4380 planktonic cells after 48 hrs by broth microdilution assay; type: functional; details: isolate 4380, 48 h
# Candida albicans [21] = test: Antifungal activity against fluconazole-resistant Candida albicans clinical isolate 3731 planktonic cells after 48 hrs by broth microdilution assay; type: functional; details: isolate 3731, 48 h
# Candida albicans [22] = test: Antifungal activity against fluconazole-resistant Candida albicans clinical isolate 4639 planktonic cells after 48 hrs by broth microdilution assay; type: functional; details: isolate 4639, 48 h
# Candida albicans [23] = test: Antifungal activity against fluconazole-resistant Candida albicans clinical isolate 3034 planktonic cells after 48 hrs by broth microdilution assay; type: functional; details: isolate 3034, 48 h
# Candida albicans [24] = test: Antifungal activity against fluconazole-resistant Candida albicans clinical isolate 2440 planktonic cells after 48 hrs by broth microdilution assay; type: functional; details: isolate 2440, 48 h
# Candida albicans [25] = test: Antifungal activity against fluconazole-resistant Candida albicans clinical isolate 2307 planktonic cells after 48 hrs by broth microdilution assay; type: functional; details: isolate 2307, 48 h
# Saccharomyces cerevisiae [26] = test: Synergistic antimicrobial activity against Saccharomyces cerevisiae S288c isolate at MIC concentration after 24 hrs at 30 degC in presence of G884; type: functional
# [27] = Toxicity in ip dosed DBA/2 mouse infected with Candida albicans MY1055 administered bid for 2 days or qd for 4 days measured on day 4; type: organism-based; details: in vivo
# Candida albicans [28] = test: Synergistic antimicrobial activity against Candida albicans Ca2323 isolate at MIC concentration after 24 hrs at 30 degC in presence of G884; type: functional
# Candida albicans [29] = test: Synergistic antimicrobial activity against Candida albicans Ca2323 isolate at MIC concentration after 24 hrs at 30 degC in presence of G365; type: functional
# Saccharomyces cerevisiae [30] = test: Synergistic antimicrobial activity against Saccharomyces cerevisiae S288c isolate at MIC concentration after 24 hrs at 30 degC in presence of G365; type: functional
# Aspergillus fumigatus [31] = test: Antifungal activity against Aspergillus fumigatus MTU 06002; type: functional
# Candida albicans [32] = test: Antifungal activity against Candida albicans TIMM 0171 after 48 hrs by broth-microdilution method; type: functional; details: TIMM 0171, 48 h
# Candida albicans [33] = test: Antifungal activity against Candida albicans ATCC 24433 after 48 hrs by broth-microdilution method; type: functional; details: ATCC 24433, 48 h
# Candida albicans [34] = test: Antifungal activity against Candida albicans ATCC 44859 after 48 hrs by broth-microdilution method; type: functional; details: ATCC 44859, 48 h
# Candida albicans [35] = test: Antifungal activity against Candida albicans IFM 40009 after 48 hrs by broth-microdilution method; type: functional; details: IFM 40009, 48 h
# Candida albicans [36] = test: Antifungal activity against Candida albicans ATCC 90028 after 48 hrs by broth-microdilution method; type: functional; details: ATCC 90028, 48 h
# Candida albicans [37] = test: Antifungal activity against Candida albicans TIMM 0239 after 48 hrs by broth-microdilution method; type: functional; details: TIMM 0239, 48 h
# Cryptococcus neoformans [38] = test: Antifungal activity against Cryptococcus neoformans TIMM 3173 after 48 hrs by broth-microdilution method; type: functional; details: TIMM 3173, 48 h
# [39] = biological target: T1, Glycylpeptide N-tetradecanoyltransferase (Candida albicans (strain SC5314 / ATCC MYA-2876) (Yeast), UniProt P30418); test: Inhibition of Candida albicans ATCC 90028 NMT using GLTISKLFRR-NH2 as substrate assessed as reduction in [3H]-myristoylated peptide reaction product formation preincubated with substrate for 10 mins followed by enzyme addition measured after 10 mins by HPLC analysis
# T1 sequence (P30418 whole entry): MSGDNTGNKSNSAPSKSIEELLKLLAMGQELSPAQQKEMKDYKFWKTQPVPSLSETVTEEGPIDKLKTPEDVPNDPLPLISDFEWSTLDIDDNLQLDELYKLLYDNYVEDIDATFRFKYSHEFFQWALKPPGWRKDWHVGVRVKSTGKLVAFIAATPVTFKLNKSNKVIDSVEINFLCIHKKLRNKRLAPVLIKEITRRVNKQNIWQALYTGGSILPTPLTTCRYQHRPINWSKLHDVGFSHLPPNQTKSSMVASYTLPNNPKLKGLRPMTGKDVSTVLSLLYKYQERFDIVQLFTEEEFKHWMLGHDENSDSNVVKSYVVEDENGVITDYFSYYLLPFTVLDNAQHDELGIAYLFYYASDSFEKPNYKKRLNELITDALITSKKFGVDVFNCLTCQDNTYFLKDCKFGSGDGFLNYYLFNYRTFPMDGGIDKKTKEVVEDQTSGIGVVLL
# Candida albicans [40] = test: Antifungal activity against Candida albicans IFM 5728 after 48 hrs by broth-microdilution method; type: functional; details: IFM 5728, 48 h
structure (smiles),measurement,setting,value
CCc1cccc(C)c1NS(=O)(=O)c1nc2nc(C)cc(C3CC3)n2n1,IC30,Saccharomyces cerevisiae [1],4.2 µM
same,MIC50,Cryptococcus neoformans [2],4 µg/mL
same,MIC50,Candida albicans [3],1 µg/mL
same,MIC50,Aspergillus fumigatus [4],4 µg/mL
Cc1nc(/N=N/c2ccc(C(=O)O)cc2)c(COP(=O)(O)O)c(C=O)c1O,IC50,[5],7.1 µM
Cc1c(NS(=O)(=O)c2c(Cl)cc(-c3ccnc(N4CCNCC4)c3)cc2Cl)c(CC(C)C)nn1C [ZELENIRSTAT],MIC,Aspergillus fumigatus [6],925 µM
same,IC50,[7],0.012 µM
CCOC(=O)C1=C(COCCN)NC(C)=C(C(=O)OC)C1c1ccccc1Cl (stereo not given),fractional inhibitory concentration index (FICI),Candida albicans [8],0.017 to 0.035
same,fractional inhibitory concentration index (FICI),Candida albicans [9],0.017 to 0.035
CC[C@@H](C)[C@@H](O)[C@H](C)C(=O)[C@H](C)/C=C(\C)C[C@H](C)C1OC(=O)[C@H]1C (stereo not given in full),MIC,Candida albicans [10],64 µg/mL
CCCCCCCCCCCCCCCCOP(=O)([O-])OCC[N+](C)(C)C [MILTEFOSINE],MIC,Candida albicans [11],0.5 to 2 µg/mL
same,MIC,Candida albicans [12],0.5 to 2 µg/mL
same,MIC,Candida albicans [13],0.5 to 2 µg/mL
same,MIC,Candida albicans [14],0.5 to 2 µg/mL
same,MIC,Candida albicans [15],0.5 to 2 µg/mL
same,inhibition (INH),Candida albicans [16],>90%
same,inhibition (INH),Candida albicans [17],90%
same,MIC,Candida albicans [18],0.5 to 2 µg/mL
same,MIC,Candida albicans [19],0.5 to 2 µg/mL
same,MIC,Candida albicans [20],0.5 to 2 µg/mL
same,MIC,Candida albicans [21],0.5 to 2 µg/mL
same,MIC,Candida albicans [22],0.5 to 2 µg/mL
same,MIC,Candida albicans [23],0.5 to 2 µg/mL
same,MIC,Candida albicans [24],0.5 to 2 µg/mL
same,MIC,Candida albicans [25],0.5 to 2 µg/mL
C=C1C2CC3[C@@H](C(C)C)[C@H](OC(=O)NCCCC)C[C@]3(C)CC2/C(C)=C\CC2[C@H](C)OC(=O)[C@@H](O)[C@@]12O (stereo not given in full),fractional inhibitory concentration index (FICI),Saccharomyces cerevisiae [26],0.25 - 0.313
same,LD50 at 4 days,[27],> 300 mg/kg
same,fractional inhibitory concentration index (FICI),Candida albicans [28],0.25 - 0.313
same,fractional inhibitory concentration index (FICI),Candida albicans [29],0.25 - 0.313
same,fractional inhibitory concentration index (FICI),Saccharomyces cerevisiae [30],0.25 - 0.313
COC(=O)C1=C(C)NC(C)=C(C(=O)OC)C1c1ccccc1[N+](=O)[O-],fractional inhibitory concentration index (FICI),Candida albicans [8],0.017 to 0.035
same,fractional inhibitory concentration index (FICI),Candida albicans [9],0.017 to 0.035
Nc1ccc(O)c2c1C(=O)c1c(O)ccc(N)c1C2=O,Ki,[5],300 µM
C/N=[N+](\[O-])CC[C@H](N)C(=O)O,IC80,Aspergillus fumigatus [31],0.72 µg/mL
O=C(Nc1nc2ccc(NC(=O)[C@@H]3CCC[C@H](NCc4ccc5ccccc5c4)C3)cc2s1)C1CCCC1,MIC,Candida albicans [32],0.78 µM
same,MIC,Aspergillus fumigatus [6],> 25 µM
same,MIC,Candida albicans [33],0.78 µM
same,MIC,Candida albicans [34],0.78 µM
same,MIC,Candida albicans [35],0.78 µM
same,MIC,Candida albicans [36],0.78 µM
same,MIC,Candida albicans [37],0.78 µM
same,MIC,Cryptococcus neoformans [38],> 25 µM
same,IC50,[39],0.00049 µM
same,MIC,Candida albicans [40],0.78 µM
N=C(N)NCCC[C@H](N)C(=O)N[C@@H](/C=C/CP(=O)(O)O)C(=O)O,MIC,Candida albicans [10],0.35 µg/mL
